One molecule from patent publication US10196417B2, “Baicalin magnesium compound and its preparation method and application” (CHENGDE MEDICAL UNIVERSITY, priority 2016, dated 2019) can be followed below.

Marks after values point to notes of the source that are not given here.

The test system of this assay is acetic acid-induced pain in mice. The assay can be described thus: Analgesia: acetic acid-induced writhing. Format: in vivo. The settings on record: 0.15 g/kg intragastric once per day 7 days. The procedure:
40 mice, 20-22 g in weight, were randomly divided into 4 groups each having 10 mice, a baicalin (0.067 g/kg) group, a baicalin magnesium (equivalent to 0.067 g/kg of baicalin) group, a blank control group (administrated with normal saline), and an aspirin positive control group (0.15 g/kg). The mice were intragastrically administrated once per day for successive 7 days. After 30 minutes of final administration, the mice were intraperitoneally injected with 0.6% acetic acid saline solution at a dose of 0.2 mL/10 g; the number of writhing responses in the mice within 15 minutes was counted. Analgesia % was calculated as follows: Analgesia %=[(average number of writhing responses of the blank control group−average number of writhing responses of the drug administration group)/average number of writhing responses of the blank control group]×100%. Single-factor variance analysis was performed on data by the SPSS19.0 statistical software, and P<0.05 was of statistical significance.
(In general: Writhing tests count abdominal constrictions after an irritant is injected.)

With `CC(=O)Oc1ccccc1C(=O)O` [Positive Control, aspirin], the Analgesia % (vs blank control) is reported as 83.3* %. This molecule yielded a Number of writhing (writhing within 15 minutes after 0.6% acetic acid i.p.) of 4.43 ± 3.21.
